According to ChEMBL document CHEMBL5154930, “Design, Synthesis, and Biological Evaluations of DOT1L Peptide Mimetics Targeting the Protein-Protein Interactions between DOT1L and MLL-AF9/MLL-ENL” (J Med Chem, 2022):
Active and inactive are the calls of the source. The rule behind the calls is not given here.

Legend:
[1] = system: MOLM-13; assay: Inhibition of methylation of H3K79 in human MOLM-13 cells assessed as inhibition of methylation at HOXA11 gene cluster by chromatin immunoprecipitation assay; assay type: functional, cell-based
[2] = system: MOLM-13; assay: Down regulation of ARID1B gene in human MOLM-13 cells by RNA-sequencing analysis; assay type: functional, cell-based
[3] = system: MOLM-13; assay: Inhibition of methylation of H3K79 in human MOLM-13 cells assessed as inhibition of methylation at HOXA5 gene cluster by chromatin immunoprecipitation assay; assay type: functional, cell-based
[4] = system: MOLM-13; assay: Down regulation of HOXA9 gene in human MOLM-13 cells by RNA-sequencing analysis; assay type: functional, cell-based
[5] = system: MOLM-13; assay: Inhibition of methylation of H3K79 in human MOLM-13 cells assessed as inhibition of methylation at HOXA7 gene cluster by chromatin immunoprecipitation assay; assay type: functional, cell-based
[6] = system: MOLM-13; assay: Down regulation of HPGD gene in human MOLM-13 cells by RNA-sequencing analysis; assay type: functional, cell-based
[7] = system: RS4-11; assay: Anticancer activity against human RS4-11 cells assessed as inhibition of cell growth treated for 8 days measured by CCK-8 kit method; assay type: functional, cell-based; details: RS4-11, 192 h
[8] = system: MOLM-13; assay: Down regulation of SSBP2 gene in human MOLM-13 cells by RNA-sequencing analysis; assay type: functional, cell-based
[9] = system: MOLM-13; assay: Down regulation of DCUN1D1 gene in human MOLM-13 cells by RNA-sequencing analysis; assay type: functional, cell-based
[10] = system: MOLM-13; assay: cells; details: Homo sapiens, MOLM-13, 96 h
Description: Anticancer activity against human MOLM-13 cells harbouring MLL-AF9 assessed as inhibition of cell growth treated for 4 days measured by CCK-8 kit method

[11] = system: MOLM-13; assay: cells; details: Homo sapiens, MOLM-13, 168 h
Description: Anticancer activity against human MOLM-13 cells harbouring MLL-AF9 assessed as inhibition of cell growth treated for 7 days measured by CCK-8 kit method

[12] = system: MOLM-13; assay: Down regulation of HOXA11 gene in human MOLM-13 cells by RNA-sequencing analysis; assay type: functional, cell-based
[13] = system: MOLM-13; assay: Down regulation of ARID2 gene in human MOLM-13 cells by RNA-sequencing analysis; assay type: functional, cell-based
[14] = system: MOLM-13; assay: Down regulation of HOXA10 gene in human MOLM-13 cells by RNA-sequencing analysis; assay type: functional, cell-based
[15] = system: MV4-11; assay: Anticancer activity against human MV4-11 cells assessed as inhibition of cell growth treated for 8 days measured by CCK-8 kit method; assay type: functional, cell-based; details: MV4-11, 192 h
[16] = system: MOLM-13; assay: Down regulation of RUNX1 gene in human MOLM-13 cells by RNA-sequencing analysis; assay type: functional, cell-based
[17] = system: MOLM-13; assay: Down regulation of PBX3 gene in human MOLM-13 cells by RNA-sequencing analysis; assay type: functional, cell-based
[18] = system: MOLM-13; assay: Down regulation of CDK6 gene in human MOLM-13 cells by RNA-sequencing analysis; assay type: functional, cell-based
[19] = system: MOLM-13; assay: Down regulation of AC011043.1 gene in human MOLM-13 cells by RNA-sequencing analysis; assay type: functional, cell-based
[20] = system: MOLM-13; assay: Down regulation of SKP2 gene in human MOLM-13 cells by RNA-sequencing analysis; assay type: functional, cell-based
[21] = system: MOLM-13; assay: Inhibition of methylation of H3K79 in human MOLM-13 cells assessed as inhibition of methylation at HOXA13 gene cluster by chromatin immunoprecipitation assay; assay type: functional, cell-based
[22] = system: MOLM-13; assay: Inhibition of HOXA9 gene expression in human MOLM-13 cells measured at 0.125 to 0.5 uM after 6 days by RT-qPCR analysis; assay type: functional, cell-based; details: dose 0.125-0.5 µM, time 6.0 day
[23] = system: MOLM-13; assay: Down regulation of JMJD1C gene in human MOLM-13 cells by RNA-sequencing analysis; assay type: functional, cell-based
[24] = system: MOLM-13; assay: Inhibition of methylation of H3K79 in human MOLM-13 cells assessed as inhibition of methylation at HOXA2 gene cluster by chromatin immunoprecipitation assay; assay type: functional, cell-based
[25] = system: MOLM-13; assay: Inhibition of methylation of H3K79 in human MOLM-13 cells assessed as inhibition of methylation at MEIS1-AS3 gene cluster by chromatin immunoprecipitation assay; assay type: functional, cell-based
[26] = system: MOLM-13; assay: Inhibition of methylation of H3K79 in human MOLM-13 cells assessed as inhibition of methylation at HOXA1 gene cluster by chromatin immunoprecipitation assay; assay type: functional, cell-based
[27] = system: MOLM-13; assay: Inhibition of methylation of H3K79 in human MOLM-13 cells assessed as inhibition of methylation at HOXA4 gene cluster by chromatin immunoprecipitation assay; assay type: functional, cell-based
[28] = system: MOLM-13; assay: Down regulation of TUBA1B gene in human MOLM-13 cells by RNA-sequencing analysis; assay type: functional, cell-based
[29] = system: MOLM-13; assay: Inhibition of methylation of H3K79 in human MOLM-13 cells assessed as inhibition of methylation at HOXA9 gene cluster by chromatin immunoprecipitation assay; assay type: functional, cell-based
[30] = system: MOLM-13; assay: Down regulation of […] gene in human MOLM-13 cells by RNA-sequencing analysis; assay type: functional, cell-based
[31] = system: MOLM-13; assay: cells; details: Homo sapiens, MOLM-13, 144 h
Description: Anticancer activity against human MOLM-13 cells harbouring MLL-AF9 assessed as inhibition of cell growth treated for 6 days measured by CCK-8 kit method

[32] = system: MOLM-13; assay: Down regulation of MEF2C gene in human MOLM-13 cells by RNA-sequencing analysis; assay type: functional, cell-based
[33] = system: MOLM-13; assay: cells; details: Homo sapiens, MOLM-13, 192 h
Description: Anticancer activity against human MOLM-13 cells harbouring MLL-AF9 assessed as inhibition of cell growth treated for 8 days measured by CCK-8 kit method

[34] = system: MOLM-13; assay: Down regulation of MEIS1 gene in human MOLM-13 cells by RNA-sequencing analysis; assay type: functional, cell-based
[35] = system: MOLM-13; assay: Down regulation of CDK1 gene in human MOLM-13 cells by RNA-sequencing analysis; assay type: functional, cell-based
[36] = system: KOPN-8; assay: cells; details: Homo sapiens, KOPN-8, 192 h
Description: Anticancer activity against human KOPN-8 cells harbouring MLL-ENL assessed as inhibition of cell growth treated for 8 days measured by CCK-8 kit method

[37] = system: MOLM-13; assay: Inhibition of methylation of H3K79 in human MOLM-13 cells assessed as inhibition of methylation at […] gene cluster by chromatin immunoprecipitation assay; assay type: functional, cell-based
[38] = system: K562; assay: Anticancer activity against human K562 cells assessed as inhibition of cell growth treated for 8 days measured by CCK-8 kit method; assay type: functional, cell-based; details: K562, 192 h
[39] = system: MOLM-13; assay: Down regulation of MCM2 gene in human MOLM-13 cells by RNA-sequencing analysis; assay type: functional, cell-based
[40] = system: MOLM-13; assay: Down regulation of CNOT6L gene in human MOLM-13 cells by RNA-sequencing analysis; assay type: functional, cell-based
[41] = system: MOLM-13; assay: Inhibition of methylation of H3K79 in human MOLM-13 cells assessed as inhibition of methylation at HOXA-AS2 gene cluster by chromatin immunoprecipitation assay; assay type: functional, cell-based
[42] = system: MOLM-13; assay: Inhibition of HOXA9 gene expression in human MOLM-13 cells at 0.25 uM by RT-qPCR analysis; assay type: functional, cell-based; details: time 2-6 day, TDE = time-dependent effect
[43] = system: MOLM-13; assay: Inhibition of methylation of H3K79 in human MOLM-13 cells assessed as inhibition of methylation at HOXA6 gene cluster by chromatin immunoprecipitation assay; assay type: functional, cell-based
[44] = system: MOLM-13; assay: Inhibition of methylation of H3K79 in human MOLM-13 cells assessed as inhibition of methylation at HOXA3 gene cluster by chromatin immunoprecipitation assay; assay type: functional, cell-based
[45] = system: MOLM-13; assay: cells; details: Homo sapiens, MOLM-13, 120 h
Description: Anticancer activity against human MOLM-13 cells harbouring MLL-AF9 assessed as inhibition of cell growth treated for 5 days measured by CCK-8 kit method

[46] = system: MOLM-13; assay: Inhibition of methylation of H3K79 in human MOLM-13 cells assessed as inhibition of methylation at HOXA10 gene cluster by chromatin immunoprecipitation assay; assay type: functional, cell-based
[47] = system: MOLM-13; assay: Down regulation of GBE1 gene in human MOLM-13 cells by RNA-sequencing analysis; assay type: functional, cell-based
[48] = system: MOLM-13; assay: cells; details: Homo sapiens, MOLM-13, 216 h
Description: Anticancer activity against human MOLM-13 cells harbouring MLL-AF9 assessed as inhibition of cell growth treated for 9 days measured by CCK-8 kit method

[49] = system: MOLM-13; assay: Down regulation of HOXA3 gene in human MOLM-13 cells by RNA-sequencing analysis; assay type: functional, cell-based
[50] = system: MOLM-13; assay: Down regulation of CDKN1B gene in human MOLM-13 cells by RNA-sequencing analysis; assay type: functional, cell-based
[51] = system: MOLM-13; assay: Disruption of AF9-mediated DOT1L recruitment in human […] cells assessed as decrease in global H3K79 methylation level at 0.125 uM measured after 8 days by Western blotting analysis; assay type: cell-based; details: time 8.0 day
[52] = system: MOLM-13; assay: Down regulation of HOXA5 gene in human MOLM-13 cells by RNA-sequencing analysis; assay type: functional, cell-based
[53] = system: MOLM-13; assay: Inhibition of MEIS1 gene expression in human MOLM-13 cells measured at 0.125 to 0.5 uM after 6 days by RT-qPCR analysis; assay type: functional, cell-based; details: dose 0.125-0.5 µM, time 6.0 day
[54] = system: MOLM-13; assay: Inhibition of methylation of H3K79 in human MOLM-13 cells assessed as inhibition of methylation at MEIS1 gene cluster by chromatin immunoprecipitation assay; assay type: functional, cell-based
[55] = system: MOLM-13; assay: Down regulation of GATA2 gene in human MOLM-13 cells by RNA-sequencing analysis; assay type: functional, cell-based
[56] = system: MOLM-13; assay: Induction of apoptosis in human MOLM-13 cells at 0.125 to 0.5 uM treated for 7 days by Annexin V-FITC/PI staining based flow cytometry analysis; assay type: functional, cell-based; details: dose 0.125-0.5 µM, time 7.0 day
[57] = system: MOLM-13; assay: Inhibition of MEIS1 expression in human MOLM-13 cells at 0.25 uM by RT-qPCR analysis; assay type: functional, cell-based; details: time 2-6 day, TDE = time-dependent effect

Q: How did the inhibition [1] turn out when `CC(C)N(C[C@H]1O[C@@H](n2cnc3c(N)ncnc32)[C@H](O)[C@@H]1O)[C@H]1C[C@@H](CCc2nc3cc(C(C)(C)C)ccc3[nH]2)C1` [PINOMETOSTAT] was run?
A: Active

Q: What about the Activity [2] of the same molecule?
A: Active

Q: And the inhibition [3]?
A: Active

Q: What about the Activity [4] of the same molecule?
A: Active

Q: And the inhibition [5]?
A: Active

Q: What about the Activity [6] of the same molecule?
A: Active

Q: And the IC50 [7]?
A: 70 nM

Q: What about the Activity [8] of the same molecule?
A: Active

Q: What about the Activity [9] of the same molecule?
A: Active

Q: And the IC50 [10]?
A: 227 nM

Q: What about the IC50 [11] of the same molecule?
A: 59 nM

Q: And the Activity [12]?
A: Active

Q: And the Activity [13]?
A: Active

Q: What about the Activity [14] of the same molecule?
A: Active

Q: What about the IC50 [15] of the same molecule?
A: 50 nM

Q: What about the Activity [16] of the same molecule?
A: Active

Q: What about the Activity [17] of the same molecule?
A: Active

Q: What about the Activity [18] of the same molecule?
A: Active

Q: And the Activity [19]?
A: Active

Q: What about the Activity [20] of the same molecule?
A: Active

Q: And the inhibition [21]?
A: Active

Q: What about the inhibition [22] of the same molecule?
A: Active

Q: What about the Activity [23] of the same molecule?
A: Active

Q: And the inhibition [24]?
A: Active

Q: And the inhibition [25]?
A: Active

Q: And the inhibition [26]?
A: Active

Q: What about the inhibition [27] of the same molecule?
A: Active

Q: What about the Activity [28] of the same molecule?
A: Active

Q: And the inhibition [29]?
A: Active

Q: And the Activity [30]?
A: Active

Q: What about the IC50 [31] of the same molecule?
A: 73 nM

Q: What about the Activity [32] of the same molecule?
A: Active

Q: And the IC50 [33]?
A: 30 nM

Q: And the Activity [34]?
A: Active

Q: And the Activity [35]?
A: Active

Q: And the IC50 [36]?
A: 60 nM

Q: What about the inhibition [37] of the same molecule?
A: Active

Q: And the IC50 [38]?
A: 31000 nM

Q: What about the Activity [39] of the same molecule?
A: Active

Q: What about the Activity [40] of the same molecule?
A: Active

Q: What about the inhibition [41] of the same molecule?
A: Active

Q: And the inhibition [42]?
A: Tde

Q: What about the inhibition [43] of the same molecule?
A: Active

Q: And the inhibition [44]?
A: Active

Q: What about the IC50 [45] of the same molecule?
A: 97 nM

Q: And the inhibition [46]?
A: Active

Q: What about the Activity [47] of the same molecule?
A: Active

Q: What about the IC50 [48] of the same molecule?
A: 21 nM

Q: What about the Activity [49] of the same molecule?
A: Active

Q: And the Activity [50]?
A: Active

Q: And the inhibition [51]?
A: 100%

Q: And the Activity [52]?
A: Active

Q: What about the inhibition [53] of the same molecule?
A: Active

Q: And the inhibition [54]?
A: Active

Q: And the Activity [55]?
A: Active

Q: What about the Activity [56] of the same molecule?
A: Active

Q: What about the inhibition [57] of the same molecule?
A: Tde
